Measured values reported in US20050026833A1, “PSP-94: use for treatment of hypercalcemia and bone metastasis” (priority 2001, published 2005).

Legend:
[1] = system: PTHrP; test: Plasma PTHrP radioimmunoassay in tumor bearing animals; format: in vivo, male Copenhagen rats
Experimental: Control animals received PBS alone as vehicle control.
Other Analytical Methods. Plasma calcium levels were determined by atomic absorption spectrophotometry (model 703, Perkin-Elmer, Norwalk, Conn.). For plasma PTHrP, all samples were tested in two dilutions in PTHrP radio-immunoassay (R.I.A.) kit (Nichols Institute Diagnostics, San Juan Capistrano, Calif.) according to manufacturer's instructions.
Comparison was made between plasma collected from normal, non-tumor bearing animals (N), control tumor bearing animals receiving vehicle alone (CTL) and plasma collected from experimental animals receiving different doses of PSP-94 (0.1-10.0 ug/kg/day). Plasma calcium levels were determined by atomic absorption spectrophotometry (model 703, Perkin-Elmer, Norwalk, Conn.). For plasma PTHrP, all samples were tested in two dilutions in PTHrP R.I.A. kit (Nichols Institute Diagnostics, San Juan Capistrano, Calif.) according to manufacturers instructions.
FIGS. 10A and 10B show male Copenhagen rats inoculated s.c. with 10^6 Mat Ly Lu-PTHrP cells. Following 3 days of tumor cell inoculation, animals were treated with vehicle alone (Ctl) or different doses (1.0, or 10.0 ug/kg/day) of PSP-94 for 18 days. Animals were sacrificed on day 21 and plasma PTHrP (FIG. 10A; expressed in picomole equivalents/liter) or plasma calcium (FIG. 10B; expressed in millimolar (mM)) levels were determined. Results for non-tumor bearing animals are also shown (N).
Comparison was made between plasma collected from normal, non-tumor bearing animals, control tumor bearing animals receiving vehicle alone and experimental animals receiving different doses of PCK3145 (1.0-100.0 ug/kg/day). […] Plasma PTHrP levels in normal non-tumor bearing animals are also shown (N).

[2] = system: Mat Ly Lu-PTHrP cells; test: Cell morphology of treated Mat Ly Lu-PTHrP cells; format: cell-based, rat
Experimental: Cell morphology. Morphological analysis of control and experimental Mat Ly Lu-PTHrP cells treated with PSP-94 or PCK3145 was carried out by plating 5×10^4 cells/ well in 6-well plates (Falcon Plastics, Oxnard, Calif.) in the presence of 10% FBS.
Mat Ly Lu cells transfected with vector alone (CMV) or vector expressing PTHrP were seeded at a density of 5×10^3 cells/well in 6-well plates. Mat Ly Lu-PTHrP cells were treated with PSP-94 and were trypsinized and counted using a coulter counter as described herein. Change in cell number following treatment with 10.0 ug/ml of PSP-94 for 72 hrs is illustrated in FIG. 1.
Mat Ly Lu-PTHrP cells were seeded at a density of 5×10^3 cells/well in 6-well plates and treated with different doses (1.0-100.0 ug/ml) of PCK3145 for up to 5 days and were trypsinized and counted using a coulter counter as described herein.

[3] = system: PTHrP; test: Tumoral PTHrP production by immunohistochemistry of primary tumors; format: in vivo, male Copenhagen rats
Experimental: Histologic Analysis. For immunohistological analysis, primary tumor samples were dewaxed by heating at 60° C. and rehydrated in a graded alcohol series (100%-70%). Anti-rat antibody against PTHrP was used as the primary antibody. Tumor sections were incubated overnight at 4° C. followed by further incubation with biotinylated universal antibody (Vector Laboratories, Burlingame, Calif.) for 45-60 minutes. Sections were rinsed with TBST (Tris buffered saline-Tween) followed by incubation with Vectastain ABC-AP Reagent (Vector Laboratories, Burlingame, Calif.) for 30 minutes. These sections were again washed with TBST and incubated with a Napthol AS-Mix Phosphate/Fast Red solution (Sigma-Aldriche, Oakville, ON). The sections were finally counterstained with Methyl Green (Vector Laboratories, Burlingame, Calif.) and mounted.
Alternatively, paraffin embedded tumor samples were cut into 5 um-thick sections for immunohistochemical analysis. […]
Tumors from control group treated with vehicle alone and experimental groups treated with different doses of PSP-94 (0.1-10.0 μg/kg/day) were excised, paraffin embedded, and sectioned and analyzed for tumoral PTHrP production by immunohistochemical reaction specific for PTHrP using method described herein. […] Three animals were present in each group and three tumor sections were analyzed for each animal by evaluating at least ten random fields of observation.
Primary tumors from control vehicle treated animals and animals treated with the highest dose of PCK3145 (100.0 ug/kg/day) were removed, paraffin embedded, and sectioned. […] Therefore, tumors from control group treated with vehicle alone and experimental group treated with the highest dose of PCK3145 (100.0 ug/kg/day) were excised and analyzed for tumoral PTHrP production by immunohistochemical analysis. […] No reaction was seen when these tumors were evaluated for background reaction in the absence of PTHrP antibody (NC).

E W Q T D N C E T C T C Y E T (EWQTDNCETCTCYET; PCK3145 (polypeptide 31-45))
plasma PTHrP levels ([1]; PCK3145 1.0-100.0 ug/kg/day, day 16, vs vehicle): dose-dependent decrease | cell morphology ([2]; 100.0 ug/ml PCK3145 (data not shown)): changed their morphology from a more spindle-like appearance to a more circular and condensed shape | tumoral PTHrP production (PTHrP immuno-staining) ([3]; 100.0 ug/kg PCK3145, relative to lower doses): most pronounced | tumoral PTHrP production (PTHrP immuno-staining) ([3]; different doses of PCK3145 (data not shown), vs vehicle): dose dependent decrease

B1: PSP-94: prostate secretory protein of 94 amino acids; native human seminal plasma PSP-94 (protein)
chain: SCYFIPNEGVPGDSTRKCMDLKGNKHPINSEWQTDNCETCTCYETEISCCTLVSTPVGYDKDNCQRIFKKEDCKYIVVEKKDPKKTCSVSEWII
plasma PTHrP levels ([1]; 10.0 ug/kg/day PSP-94): near normalization | plasma PTHrP levels ([1]; PSP-94 0.1-10.0 ug/kg/day, day 16, vs vehicle): dose-dependent decrease | tumor cell morphology ([2]; 10.0 ug/ml PSP-94 for 3 days (data not shown)): noticeable change in tumor cell morphology | tumoral PTHrP production (PTHrP immunostaining) ([3]; PSP-94 0.1-10.0 ug/kg/day, vs vehicle): same dose-dependent decrease
